This note sets out measurements from patent US12343339B2, “Bisaminoquinolines and bisaminoacridines compounds and methods of their use” (THE TRUSTEES OF THE UNIVERSITY OF PENNSYLVANIA, priority 2019, dated 2025).

Values after ≈ are worked out from the molar mass of the structure shown. Like-named read-outs stand apart in the source and are kept apart here.

One series relates to A375 cells. Briefly: Cytotoxicity assay, cell proliferation (Alamar Blue). To be noted: Homo sapiens, A-375, 72 h. The series is classed as cell-based. How it is done: (§1) Media Preparation Protocol:— • Media composition for cell preservation (4 ml): 900 μl of Hi-FBS+[…] of DMSO Complete Media Preparation (500 ml): For DLD1n& A375:
(§2) Cell Culture Protocol:— 1) Protocol for Reviving Cell Line(s) • 1. Take out the cell vials from LN2 container & thaw immediately at 37° C. • 2. Wipe it with 70% alcohol properly • 3. Transfer to sterile centrifuge tubes containing 9 ml media & spin at 1000 rpm for 5 min. • 4. Discard the supernatant & resuspend the pellet in 2-3 ml media and transfer to T-75 or T-150 culture flasks containing 15 or 30 ml media respectively. • 5. Incubate at 37° C.-5% CO2. 2) Protocol for Sub-Culturing Cell Line(s)
(§3) Cells should be sub-cultured when they reach 70-80% confluence. • 1. Discard the media from cell culture flask. • 2. Add 3 to 4 ml of TrypLE Express dissociation solution; keep in CO2 incubator for ˜5 min. Mix gently to avoid cell clumping. • 3. Add 4.0 to 5.0 ml of complete growth medium and mix gently & transfer to centrifuge tube. • 4. Centrifuge at 1000 rpm for 5 min. • 5. Discard the supernatant & re-suspend the pellet in 3-4 ml of media. • 6. Count the cells in cell counter or using hemocytometer. • 7. Split the cells in 1:2 or 1:4 ratio into new culture flasks. • 8. Incubate cultures at 37° C.-5% CO2 to get confluence 3) Protocol for Preserving Cell Line(s) • 1. Discard the spent media from the TC flask. • 2. Add 3 to 4 ml of TrypLE Express dissociation solution; keep in CO2 incubator for ˜5 min. Mix gently to avoid cell clumping. • 3. Add 4.0 to 5.0 ml of complete growth medium and mix gently & transfer to centrifuge tube. • 4. Centrifuge at 1000 rpm for 5 min. • 5. Discard the supernatant & re-suspend the pellet in 3-4 ml of media. • 6. Count the cells in cell counter or using hemocytometer. • 7. Spin at 1000 rpm for 5 min, discard the supernatant and re-suspend the pellet in 900 μl of media+100 μl of DMSO (Freeze app. 1.5 to 3 million cells/vial). • 8. Keep the vials in −80° C. overnight & transfer to LN2 container. Cell Proliferation (Alamar Blue) Assay:— • Seed cells at 2000 cells in 100 μL/well in 96-well tissue culture plate. Leave outer wells without cells for background measurements. Incubate at 37° C./5% CO2 for 16-18 hours. • Add 10× concentration compound dilution or DMSO control so that the final concentration is 1× and DMSO concentration 0.5%. Compound is prepared in 3-fold serial dilutions. Incubate for 72 h at 37° C./5% CO2. • Add Alamar Blue™ reagent to each well with multi-channel pipette and tap gently on each side of the plate to mix. Incubate for 3 hours at 37° C./5% CO2. • Read plates on fluorescence reader (Tecan i-control, 1.11.1.0, Device: infinite 200, Serial number: 810001990) at 540 nm excitation, 590 nm emission wavelength. • Data analysis using Graph pad prism Assay Acceptance Criteria • S/N Ratio should be >3. • Z′ should be >0.4

Another series has as its system DLD-1 cells. The description is as above. Type of series: cell-based. To be noted: Homo sapiens, 72 h. The method, then:
as §1, §2, §3

Another series concerns MiaPaCa-2 cells. The series is described as above. Type of series: cell-based. To be noted: Homo sapiens, MIA PaCa-2, 72 h. How it is done:
as §2, §3

Series [1] is described as follows: Kinetic solubility across pH (PBS pH 7.4, FaSSGF pH 1.6, FaSSIF pH 6.5). To be noted: kinetic from dmso stock. The series is classed as physicochemical. How it is done:
Kinetic solubility method was used to determine the solubility of NCEs across pH ranges, PBS pH 7.4, FaSSGF pH 1.6 & FaSSIF pH 6.5.
Procedure • 1. Seven calibration standards (i.e. 1, 5, 10, 50, 100, 200 and 300 μM) were prepared in DMSO from the 20 mM primary stock solution. • 2. Dispensed an aliquot of 198 IL of 0.001 M PBS into duplicate wells of a multiscreen solubility filter plate. • 3. Subsequently, added 2 μL of test compound solution (20 mM primary stock solution), cover the plate and shake at 150 rotations per minute for 90 minutes. • 4. At the end of 90 minutes, samples were filtered using MultiScreen HTS vacuum Manifold assembly and the filtrate was collected into the acceptor plate. • 5. An aliquot of 150 μL of filtrate from the above 96-well acceptor plate was transferred into HIPLC vials and analyzed by HIPLC-UV.

The nature of series [2]: Blood partitioning (blood to plasma ratio). The series is classed as in vitro ADME. The settings on record: fresh pooled whole blood, fresh mouse blood, 37° C., read-out: Mice blood to plasma ratio. The method, then: Blood to plasma ratio defines the concentration of a drug in whole blood (that is, target drug containing both erythrocytes and plasma) to the concentration of target drug in plasma. The red blood cell partition coefficient is the ratio of the concentration of drug in the red blood cells (that is, not including plasma) to concentration of drug in plasma.
Assay Procedure: • 1. Fresh blood was collected. • 2. An aliquot of 50 μL blood was taken from individual tubes and centrifuged to check for any haemolysis. Tube with haemolysed blood was not considered for experiment. • 3. Non-haemolysed blood in individual tubes was pooled and incubated at 37° C. • 4. 999 μL aliquot of pooled blood was taken in individual tubes. One of these tubes was designated for Chloroquine (positive control). Incubations for the test compound were similarly done in other aliquot. • 5. 1 μL of test compound (0.1% DMSO concentration) or positive control solution was spiked into each of the above tubes. • 6. Above tubes were incubated at 37° C. for 30 min. • 7. Post incubation, an aliquot (˜50 μL) was taken and centrifuged to check for haemolysis. • 8. Subsequently, 100 μL of blood sample from the incubation mixture tube was transferred into a separate labeled tube and quenched with 200 μL of Acetonitrile containing Internal standard. • 9. […]

The nature of series [3]: Buffer stability in phosphate buffered saline. Type of series: physicochemical. To be noted: PBS pH 7.4, 3 μM, 37° C. The method, then: Assay Procedure: • 1. Test compound was prepared at 3 mM in DMSO from 10 mM working stock. • 2. The experiment was conducted in Phosphate buffered saline with a final concentration of 3 μM. • 3. The vials were incubated at 37° C. in a hybridization oven for respective time points. • 4. After incubation time, equal volumes of quenching solution was added. • 5. Samples were centrifuged at 14,000 rpm for 5 min at 4° C. • 6. Supernatant was transferred into vials and analyzed in HIPLC.

Another series can be described thus: Plasma stability. The series is classed as in vitro ADME. The settings on record: 3 μM, 37° C. The method, then:
Stability of drug assessed in plasma to determine the percent remaining and half-life of the compound.
Assay Procedure: • 1. Fresh blood was collected in tubes containing anticoagulant (K2 EDTA) and the plasma collected by centrifugation. • 2. 3 mM of the test compound was prepared in DMSO from 20 mM main stock. • 3. 1 μL of test compound (3 mM) was incubated at 37° C. in 999 μL of plasma (3 μM final concentrations, 0.1% DMSO, final volume 1,000 μL). • 4. The reactions were terminated at 0, 30, 60 and 120 min by addition of two volumes of acetonitrile, containing IS (200 ng/mL) resulting in protein precipitation. • 5. After termination of reaction at individual time points, the samples were stored at −80±10° C. till the completion of experiment. • 6. On completion of last incubation point, all the samples were centrifuge at 14,000 rpm for 10 min. • 7. Supernatant (200 μL) from each reaction tube was taken for LC-MS/MS analysis.

[4] abbreviates: average of N1 and N2, read-out: Average pIC50 (n = 2) (converted).
Where [5] appears, read: replicate N1, read-out: IC50 N1.
The mark [6] stands for this setting: replicate N1, read-out: pIC50 N1 (converted).
Where [7] appears, read: replicate N2, read-out: IC50 N2.
Where [8] appears, read: replicate N2, read-out: pIC50 N2 (converted).

As to `COc1cccc2c1C(=O)c1c(O)c3c(c(O)c1C2=O)C[C@@](O)(C(=O)CO)C[C@@H]3O[C@H]1C[C@H](N)[C@H](O)[C@H](C)O1` [Doxorubicin], the IC50 in the series on A375 cells (setting [4]) is 28.2 nM; in the series on A375 cells (setting [5]), 20 nM; in the series on A375 cells (setting [6]) it was 24.5 nM; with A375 cells (setting [7]) it was 30 nM; with A375 cells (setting [8]), 31.6 nM; in the series on DLD-1 cells (setting [4]), 380 nM. The IC50 in the series on DLD-1 cells (setting [5]) was 250 nM; with DLD-1 cells (setting [6]), 245 nM; in the series with DLD-1 cells (setting [7]) it was 590 nM; in the series on DLD-1 cells (setting [8]) it was 589 nM; in the series with MiaPaCa-2 cells (setting [4]), 89.1 nM; in the series on MiaPaCa-2 cells (setting [5]), 100 nM. The IC50 with MiaPaCa-2 cells (setting [6]) was 97.7 nM; with MiaPaCa-2 cells (setting [7]), 80 nM; with MiaPaCa-2 cells (setting [8]), 81.3 nM.

Consider `CCN(CC)CCCC(C)Nc1c2ccc(Cl)cc2nc2ccc(OC)cc12` (stereo not drawn) [Quinacrine], for which the IC50 is 2240 nM with A375 cells (setting [4]); 1280 nM with A375 cells (setting [5]); 1290 nM in the series on A375 cells (setting [6]); 3840 nM with A375 cells (setting [7]); 3800 nM in the series on A375 cells (setting [8]); 4370 nM in the series on DLD-1 cells (setting [4]). Besides, the IC50 in the series with DLD-1 cells (setting [5]) was 2520 nM; with DLD-1 cells (setting [6]), 2510 nM; in the series on DLD-1 cells (setting [7]), 7540 nM; in the series on DLD-1 cells (setting [8]), 7590 nM; with MiaPaCa-2 cells (setting [4]) it was 2510 nM; in the series with MiaPaCa-2 cells (setting [5]), 2680 nM. The IC50 is 2690 nM with MiaPaCa-2 cells (setting [6]), 2340 nM in the series with MiaPaCa-2 cells (setting [7]) and 2340 nM in the series with MiaPaCa-2 cells (setting [8]).

As for `COc1ccc2nc3cc(Cl)ccc3c(NCCOCCN(C)CCOCCNc3c4ccc(Cl)cc4nc4ccc(OC)cc34)c2c1` [Dioxo-DQ-551], the solubility at 90 min in series [1] (aqueous buffer, PBS pH 7.4, 90 minutes shaking, read-out: PBS pH 7.4 solubility) is 39 µM (≈ 26.9 µg/mL); in series [1] (fassgf or other biorelevant, FaSSGF pH 1.6, 90 minutes shaking, read-out: FaSSGF pH 1.6 solubility) it was around 200 µM (≈ 138 µg/mL); in series [1] (FaSSIF pH 6.5, 90 minutes shaking, read-out: FaSSIF pH 6.5 solubility), 62 µM (≈ 42.7 µg/mL). Further, the blood plasma ratio at 30 min in series [2] came to 12.6. Moreover, the “PBS pH 7.4 stability (% remaining @120 min)” value in series [3] is 100%. Further, the “Mouse plasma stability (% remaining @ 120 min)” value in the series “Plasma stability” was found to be 88%. Moreover, the IC50 was 794 nM in the series with A375 cells (setting [4]); 440 nM in the series on A375 cells (setting [5]); 447 nM in the series with A375 cells (setting [6]); 1450 nM in the series on A375 cells (setting [7]); 1450 nM in the series on A375 cells (setting [8]); 708 nM in the series on DLD-1 cells (setting [4]). The IC50 in the series with DLD-1 cells (setting [5]) is 330 nM; in the series with DLD-1 cells (setting [6]), 324 nM; with DLD-1 cells (setting [7]), 1560 nM; with DLD-1 cells (setting [8]) it was 1550 nM; in the series with MiaPaCa-2 cells (setting [4]), 174 nM; with MiaPaCa-2 cells (setting [5]), 150 nM. In addition, the IC50 in the series with MiaPaCa-2 cells (setting [6]) was 151 nM; with MiaPaCa-2 cells (setting [7]), 210 nM; in the series with MiaPaCa-2 cells (setting [8]) it was 204 nM.
